Source: ChEMBL document CHEMBL1201862, “PubChem BioAssay data set” (2004)
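How tested: cells in 96-well plates exposed to compound for 48 hours at five concentrations. Abbreviation: GI50, concentration required for 50% inhibition of growth.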 The source made the active and inactive calls. Cut-off read from the data, not from the text of the source: active = GI50 up to about 1.1 µM and inactive = higher.

Key:
Experiment in all cases: growth of human tumour cells (NCI), 48 h
SK-MEL-28 = test system: SK-MEL-28
HCC 2998 = test system: HCC 2998
A498 = test system: A498
SF-295 = test system: SF-295
Malme-3M = test system: Malme-3M
MCF7 = test system: MCF7
MDA-MB-435 = test system: MDA-MB-435
HOP-92 = test system: HOP-92
SNB-19 = test system: SNB-19
RXF 393 = test system: RXF 393
EKVX = test system: EKVX
MOLT-4 = test system: MOLT-4
PC-3 = test system: PC-3
OVCAR-4 = test system: OVCAR-4
ACHN = test system: ACHN
HL-60 = test system: HL-60
NCI-H23 = test system: NCI-H23
NCI-H226 = test system: NCI-H226
UO-31 = test system: UO-31
CAKI-1 = test system: CAKI-1

Structure (SMILES)	GI50 (SK-MEL-28)	GI50 (HCC 2998)	GI50 (A498)	GI50 (SF-295)	GI50 (Malme-3M)	GI50 (MCF7)	GI50 (MDA-MB-435)	GI50 (HOP-92)	GI50 (SNB-19)	GI50 (RXF 393)	GI50 (EKVX)	GI50 (MOLT-4)	GI50 (PC-3)	GI50 (OVCAR-4)	GI50 (ACHN)	GI50 (HL-60)	GI50 (NCI-H23)	GI50 (NCI-H226)	GI50 (UO-31)	GI50 (CAKI-1)
CC(O)CCC(=O)c1ccoc1 (stereo unspecified)	6930 µM (inactive)	8610 µM (inactive)	3820 µM (inactive)	7130 µM (inactive)	6820 µM (inactive)	5680 µM (inactive)	> 10000 µM (inactive)	2490 µM (inactive)	7000 µM (inactive)	4850 µM (inactive)	6080 µM (inactive)	4080 µM (inactive)	6120 µM (inactive)	5110 µM (inactive)	5640 µM (inactive)	3350 µM (inactive)	8110 µM (inactive)	5610 µM (inactive)	3390 µM (inactive)	2730 µM (inactive)
O=C(O)C1CC(c2ccccc2)=NN1c1ccccc1 (stereo unspecified)	> 100 µM (inactive)	24.1 µM (inactive)	51.4 µM (inactive)	64.6 µM (inactive)	32.5 µM (inactive)	48 µM (inactive)	63.4 µM (inactive)	69.3 µM (inactive)	> 100 µM (inactive)	87.1 µM (inactive)	24 µM (inactive)	31.7 µM (inactive)	41 µM (inactive)	67.6 µM (inactive)	91.6 µM (inactive)	89.7 µM (inactive)	52.6 µM (inactive)	36.8 µM (inactive)	39.9 µM (inactive)	43.6 µM (inactive)
c1ccc(CNc2ncnc3nn[nH]c23)cc1	> 100 µM (inactive)	> 100 µM (inactive)	34 µM (inactive)	> 100 µM (inactive)	> 100 µM (inactive)	> 100 µM (inactive)	> 100 µM (inactive)	56.8 µM (inactive)	> 100 µM (inactive)	> 100 µM (inactive)	> 100 µM (inactive)	> 100 µM (inactive)	> 100 µM (inactive)	> 100 µM (inactive)	> 100 µM (inactive)	> 100 µM (inactive)	> 100 µM (inactive)	> 100 µM (inactive)	91 µM (inactive)	> 100 µM (inactive)
CC(C)(C)c1cc(OCc2nnc3sc(Cc4ccccc4)nn23)c(Cl)cc1OCc1nnc2sc(Cc3ccccc3)nn12	24.2 µM (inactive)	4.4 µM (inactive)	30.5 µM (inactive)	23.3 µM (inactive)	19.5 µM (inactive)	17.7 µM (inactive)	24.1 µM (inactive)	15.8 µM (inactive)	33.5 µM (inactive)	18.1 µM (inactive)	27.3 µM (inactive)	17.3 µM (inactive)	30.1 µM (inactive)	24.8 µM (inactive)	24.9 µM (inactive)	23.8 µM (inactive)	31.9 µM (inactive)	> 100 µM (inactive)	47.5 µM (inactive)	34.3 µM (inactive)
O=C(c1c(F)c(F)c(F)c(F)c1F)c1c(F)c(F)c(F)c(F)c1F	2.88 µM (inactive)	1.67 µM (inactive)	3.06 µM (inactive)	2.55 µM (inactive)	1.52 µM (inactive)	0.299 µM (active)	1.56 µM (inactive)	1.83 µM (inactive)	4.06 µM (inactive)	1.55 µM (inactive)	1.96 µM (inactive)	0.171 µM (active)	1.62 µM (inactive)	1.75 µM (inactive)	1.7 µM (inactive)	0.48 µM (active)	2.48 µM (inactive)	3.51 µM (inactive)	1.23 µM (inactive)	0.914 µM (active)
COc1ccc(/C=C2\N/C(=N\N=C/C(O)C(O)C(O)C(O)CO)NC2=O)cc1 (stereo unspecified)	44 µM (inactive)	11.6 µM (inactive)	26.9 µM (inactive)	40.5 µM (inactive)	23.1 µM (inactive)	23.1 µM (inactive)	26.2 µM (inactive)	16.1 µM (inactive)		56.5 µM (inactive)	> 100 µM (inactive)	8.63 µM (inactive)	26.2 µM (inactive)	24 µM (inactive)	32.2 µM (inactive)	> 100 µM (inactive)	23.6 µM (inactive)	39.3 µM (inactive)	91 µM (inactive)	> 100 µM (inactive)
c1ccc(C(=NNc2nc3ccccc3o2)c2ccccn2)nc1		0.0391 µM (active)	0.182 µM (active)	0.121 µM (active)	0.0182 µM (active)	< 0.0161 µM (active)	0.232 µM (active)	< 0.01 µM (active)	0.194 µM (active)	0.158 µM (active)	< 0.0162 µM (active)	< 0.0105 µM (active)	< 0.0191 µM (active)	0.0261 µM (active)	0.0198 µM (active)	0.0439 µM (active)	0.0489 µM (active)	< 0.01 µM (active)	0.0685 µM (active)	0.0723 µM (active)
Cc1c(S(=O)(=O)O)ccc(/N=N/c2c(O)c(C(=O)O)cc3ccccc23)c1Cl	> 100 µM (inactive)	> 100 µM (inactive)	> 100 µM (inactive)	> 100 µM (inactive)	> 63.5 µM (inactive)	> 100 µM (inactive)	> 100 µM (inactive)	> 100 µM (inactive)	> 100 µM (inactive)	> 100 µM (inactive)	> 100 µM (inactive)	> 100 µM (inactive)	> 100 µM (inactive)	> 100 µM (inactive)	> 100 µM (inactive)	> 100 µM (inactive)	> 100 µM (inactive)	> 100 µM (inactive)	> 100 µM (inactive)	> 86.5 µM (inactive)
Cc1ccc2c(c1)C/C(=C\c1ccccc1C(=O)O)C2=O	> 100 µM (inactive)	> 100 µM (inactive)	> 100 µM (inactive)	> 100 µM (inactive)	> 100 µM (inactive)	> 100 µM (inactive)	> 100 µM (inactive)	> 100 µM (inactive)	> 100 µM (inactive)	> 100 µM (inactive)	> 100 µM (inactive)	> 100 µM (inactive)	> 100 µM (inactive)	> 100 µM (inactive)	> 100 µM (inactive)	> 100 µM (inactive)	> 100 µM (inactive)	37 µM (inactive)	98.6 µM (inactive)	> 100 µM (inactive)
Clc1ccc(Nc2nc(Cl)c3nc[nH]c3n2)cc1Cl		16.9 µM (inactive)	18.4 µM (inactive)	23.7 µM (inactive)	32.3 µM (inactive)	30.5 µM (inactive)	26.9 µM (inactive)	23.4 µM (inactive)	37.2 µM (inactive)	21 µM (inactive)	1.97 µM (inactive)	24 µM (inactive)	14.7 µM (inactive)	52.7 µM (inactive)	24.9 µM (inactive)	18.2 µM (inactive)	25.4 µM (inactive)	38.4 µM (inactive)	26.9 µM (inactive)	3.29 µM (inactive)
O=C1CSC(c2cc3cc(Br)ccc3nc2Cl)N1c1ccc(Cl)cc1 (stereo unspecified)	33.7 µM (inactive)	19.2 µM (inactive)	36 µM (inactive)	12.9 µM (inactive)	25.7 µM (inactive)	17.9 µM (inactive)	16.8 µM (inactive)	37.2 µM (inactive)	42.7 µM (inactive)	20.8 µM (inactive)	27.2 µM (inactive)	17.4 µM (inactive)	41.2 µM (inactive)	23.2 µM (inactive)	13.5 µM (inactive)	20.7 µM (inactive)	31.3 µM (inactive)	39.2 µM (inactive)	32.3 µM (inactive)	18.5 µM (inactive)
Clc1ccc(C2NN=C3c4ccccc4OCC32)cc1 (stereo unspecified)	15.3 µM (inactive)	2.62 µM (inactive)	18.2 µM (inactive)	2.11 µM (inactive)	3.15 µM (inactive)	3.68 µM (inactive)	2.38 µM (inactive)	19.6 µM (inactive)	5.42 µM (inactive)	3.46 µM (inactive)	3.59 µM (inactive)	4.43 µM (inactive)	4.11 µM (inactive)	13.4 µM (inactive)	14.9 µM (inactive)	3.15 µM (inactive)	4.39 µM (inactive)	2.92 µM (inactive)	7.16 µM (inactive)	12.2 µM (inactive)
O=c1[nH]c2cc(C(F)(F)F)ccc2nc1CBr	15.1 µM (inactive)	17.8 µM (inactive)	18.4 µM (inactive)	14.9 µM (inactive)	14 µM (inactive)	4.97 µM (inactive)	11.4 µM (inactive)	2.79 µM (inactive)	15.5 µM (inactive)	12.4 µM (inactive)	15.8 µM (inactive)	1.56 µM (inactive)	13.1 µM (inactive)	15.7 µM (inactive)	7.19 µM (inactive)	2.69 µM (inactive)	15.4 µM (inactive)	7.87 µM (inactive)	3.4 µM (inactive)	6.25 µM (inactive)
CCOP(=O)(OCC)C(N)Cc1ccc(OC)c(OC)c1 (stereo unspecified)	> 100 µM (inactive)	> 100 µM (inactive)	> 100 µM (inactive)	> 100 µM (inactive)	> 100 µM (inactive)	45.3 µM (inactive)	> 100 µM (inactive)	> 100 µM (inactive)	> 100 µM (inactive)	> 100 µM (inactive)		> 100 µM (inactive)	> 100 µM (inactive)	> 100 µM (inactive)	> 100 µM (inactive)	> 100 µM (inactive)	> 100 µM (inactive)	> 100 µM (inactive)	> 100 µM (inactive)	> 100 µM (inactive)
